Reference: publication PMC12040169 (PLOS Biology, 2025)

Assay: in vitro
Settings: human, hela cells, % viability

Row | SMILES | viability at 28.5 h, 10 µM
1 | C=CCn1c(SC(C)C(=O)O)nnc1-c1ccc(OC)cc1 (stereo not drawn) [CBK268958] | 91.1%
2 | COCCOC(=O)C1=C(C)N(c2ccc(C(=O)O)cc2)C(=O)NC1c1ccccc1Cl (stereo not drawn) [CBK296986] | 97%
3 | O=C(CN(Cc1ccccc1)S(=O)(=O)c1ccc2c(c1)OCCO2)Nc1ccc2c(c1)OCCO2 [CBK262499] | 98.5%
4 | Cc1ccc([N+](=O)[O-])cc1NC1OCC(O)C(O)C1O (stereo not drawn) [CBK262026] | 98.8%
5 | CC(C)(C)c1ccc(C(O)CN2CCC(O)(c3ccc4c(c3)OCO4)CC2)cc1 (stereo not drawn) [CBK286336] | 89.3%
6 | COc1ccc([C@@]23CC[C@@H](NC(=O)Nc4ccc(Cl)c(F)c4)C[C@@H]2N(C(C)C)CC3)cc1OC [CBK056852T] | 99.2%
7 | COc1ccc(-c2nc(-c3cccc(F)c3)cnc2N)cc1OC [CBK063948] | 98.4%
8 | O=C(Nc1cccc2c1CCCC2)c1cnc2n(c1=O)CCS2 [CBK287379] | 105%
9 | Cc1ccc(C(=O)NNC(=O)c2ccc([N+](=O)[O-])cc2)cc1 [CBK261793] | 89.5%
10 | O=C(c1ccccc1C(F)(F)F)N1CCC(n2c(=O)[nH]c3ccccc32)CC1 [CBK149706] | 97%
11 | CN1CCN(c2cc(-c3ccccc3N(C)C)nc3ccnn23)CC1 [CBK037158] | 108%
12 | COc1cc(CNc2cc(-c3ccsc3)ncn2)cc(OC)c1OC [CBK037794] | 92%
13 | Cc1cc(COc2nc3ccccc3nc2NCCC2=CCCCC2)no1 [CBK173982] | 115%
14 | Cc1noc(C)c1C(=O)N1CCN(CCc2ccccc2)CC1 [CBK200225] | 95.8%
15 | CN1CCN(C(=O)c2ccc(-c3cncc(-c4cc5ccccc5[nH]4)n3)c(F)c2)CC1 [CBK144906] | 92.8%
16 | CC(=O)c1cc(C(=O)NCc2ccc(C)cc2)n(C)c1 [CBK296750] | 85.1%
17 | O=C(CCCCCN1C(=O)c2ccccc2C1=O)Nc1cccc(C(=O)O)c1 [CBK287261] | 85.4%
18 | O=C(CN1CCOCC1)NC1(c2ccccc2)CCCCC1 [CBK059545C] | 85.6%
19 | Cc1ccc(NC(=O)CN2C(=O)S/C(=C\c3ccc4c(c3)n(C)c(=O)n4C)C2=O)cc1 [CBK264501] | 112%
20 | Cn1nc(-c2cccs2)cc1[C@H]1CN2CC[C@H]1C[C@@H]2CNS(C)(=O)=O [CBK289102] | 93.5%
21 | CC(C(=O)N1C2CCC1CC(O)(c1ccco1)C2)c1ccccc1 (stereo not drawn) [CBK284112] | 97.8%
22 | Cc1cc(N2CCNCC2)c2ccccc2n1 [CBK066895] | 86.1%

Row | SMILES | viability at 28.5 h, 10 µM
23 | CCC(C)c1ccc(NC(=S)NCCn2cc(Cl)cn2)cc1 (stereo not drawn) [CBK267101] | 90.7%
24 | N#Cc1ccc(Oc2cccc(C(F)(F)F)c2)c(F)c1 [CBK002801] | 88.3%
25 | N#Cc1cc(Nc2ccc(Cc3ccncc3)cc2)c([N+](=O)[O-])cc1C#N [CBK264090] | 93.9%
26 | O=S(=O)(NCCCn1ccnc1)c1cccs1 [CBK269912] | 95.1%
27 | CC(C)(C)OC(=O)N1CCCN(Cc2nnc(-c3ccco3)o2)CC1 [CBK305271] | 103%
28 | O=C(O)CCCC(=O)NC(Cc1ccccc1)C(=O)Nc1ccc([N+](=O)[O-])cc1 (stereo not drawn) [CBK299806] | 84.5%
29 | Cc1ccc(C)c(NS(=O)(=O)c2ccc(NC(=O)c3ccc(CN4CCOCC4)cc3)cc2)c1 [CBK264780] | 104%
30 | O=C1CC(c2nc(-c3ccncc3)no2)CN1c1ccc2c(c1)OCO2 (stereo not drawn) [CBK288583] | 110%
31 | CC1CCCCN1C(=O)CN1C(=O)N2CCCN=C2c2ccccc21 (stereo not drawn) [CBK284393] | 79.8%
32 | COC(=O)c1ccsc1NS(=O)(=O)c1ccc(C)c([N+](=O)[O-])c1 [CBK039061] | 92.2%
33 | CC(C)Cn1cncc1CNC(=O)Nc1ccc2c(cnn2C)c1 [CBK307405] | 93.8%
34 | CN1CCC(N2CCN(C(=O)NCC(c3ccccc3)c3ccccc3)CC2)CC1 [CBK156096] | 92.5%
35 | CCN1CCN(C(=O)c2cccn2C)CC1 [CBK200248] | 84.7%
36 | CCOC(=O)C1CCCN(S(=O)(=O)c2cc(C)c(Cl)cc2C)C1 (stereo not drawn) [CBK044846] | 108%
37 | Cc1ccc(C(NC(=O)Cn2ccnc2)c2ccncc2)cc1C (stereo not drawn) [CBK281591] | 87.4%
38 | CC(=O)NCc1cccc(-c2cc(C(=O)O)cnc2-c2ccc(Cl)cc2)c1 [CBK156194] | 90.9%
39 | CC(=O)N1CCC2(C/C=C/C[C@H]3CN(C(=O)CC4CCOCC4)CC[C@H]3NC(=O)CNC2=O)CC1 [CBK292109] | 98.8%
40 | O=C(O)c1oc2ccccc2c1CN1CCN(c2ccccc2)CC1 [CBK286948] | 115%
41 | C[C@@H](c1ccccc1)n1c(=O)[nH]c2ncc(-c3cccc4ncccc34)nc21 [CBK064394] | 116%
42 | c1ccc(CCN2CCC(Oc3nccnc3OCCN3CCOCC3)CC2)nc1 [CBK082944] | 96%
43 | NCCOc1ncccc1OCc1ccccc1 [CBK036305] | 90.7%
44 | Cc1ccc(C)c(C2CCCN2C(=O)c2cccn(CC(=O)NC3CCCCC3)c2=O)c1 (stereo not drawn) [CBK286010] | 93%

Row | SMILES | viability at 28.5 h, 10 µM
45 | CCC(C)(CC(=O)O)CC(=O)N1CCC2(C1)NCCc1c2[nH]c2ccccc12 (stereo not drawn) [CBK047003] | 88.5%
46 | N#CCCCCn1cc(NC(=O)NCCc2cccs2)cn1 [CBK044855] | 100%
47 | CCN(CC)C(=O)CN1CCC(c2ccccc2F)CC1 [CBK283549] | 94%
48 | CSc1nnc(-c2ccco2)n1-c1cccc(Cl)c1C [CBK067723] | 93.1%
49 | COc1cccc2sc(Nc3nc4ccc(NC(C)=O)cc4s3)nc12 [CBK287468] | 94.9%
50 | COc1ccccc1-c1cnn2c(NCC3CCCO3)cc(C)nc12 (stereo not drawn) [CBK304529] | 84.5%
51 | CCN1C(=O)c2cccc3c(S(=O)(=O)N4CCCC4C(=O)O)ccc1c23 (stereo not drawn) [CBK267169] | 109%
52 | O=C(NNS(=O)(=O)c1ccc([N+](=O)[O-])cc1)Nc1cccc(C(F)(F)F)c1 [CBK266871] | 105%
53 | COc1ccc(-c2nnc(SCC(=O)NN)n2-c2ccccc2)cc1 [CBK263157] | 87.3%
54 | CCn1cc(CN2C3CCC2CC(O)(c2ccccc2F)C3)cn1 (stereo not drawn) [CBK282662] | 86.5%
55 | Nc1nc(N)c2nc(C3OCCO3)cnc2n1 [CBK027115] | 114%
56 | Cc1ncsc1C(=O)N1CCCC(n2cnc3cc(F)ccc32)C1 (stereo not drawn) [CBK284470] | 91.2%
57 | O=C(c1ccccc1)N1C[C@@H](c2ccsc2)[C@@H]2CN(Cc3ccccc3Cl)CC[C@@H]21 [CBK285613] | 101%
58 | CC(C)(C)OC(=O)N(c1cncc(N2CCNCC2)n1)[C@@H]1CCOc2ccccc21 [CBK172251G] | 109%
59 | O=C(CN1C(=O)N2CCCN=C2c2ccccc21)NCc1ccccc1 [CBK284403] | 84.8%
60 | CCc1nnc(NC(=O)CSc2ncnc3c2oc2ccccc23)s1 [CBK287392] | 90.7%
61 | COc1ccc(C2CCN(C(=O)C3CCCO3)CC2)cc1 (stereo not drawn) [CBK285473] | 102%
62 | Cc1ccc(S(=O)(=O)NCC(=O)O)cc1[N+](=O)[O-] [CBK034459] | 114%
63 | CCc1nc(-c2ccc(N(C)C)nc2)nn1C [CBK307381] | 106%
64 | COc1ccc(N(CC(=O)Nc2cccnc2)S(=O)(=O)c2ccc(C)cc2)cc1 [CBK264033] | 99.6%
65 | COc1cccc(N2CCN(c3cc4n[nH]c(=O)n4cn3)CC2)c1 [CBK300511] | 87.1%
66 | O=C(Nc1cc(Br)ccc1O)c1cnn2c(C(F)(F)F)cc(-c3cccs3)nc12 [CBK268190] | 96%

Row | SMILES | viability at 28.5 h, 10 µM
67 | CN1CCN(C(=O)c2ccc(-c3cnc4[nH]c(=O)n(CCN5CCOCC5)c4n3)cc2)CC1 [CBK064800] | 114%
68 | CC(NC(=O)c1nn(-c2ccc(F)cc2)c2c1CCCC2)c1ccc2c(c1)OCCO2 (stereo not drawn) [CBK296682] | 103%
69 | Cn1nc(C2CCCN(C(=O)c3cccc(F)c3)C2)c2cccnc21 (stereo not drawn) [CBK282155] | 85.8%
70 | CN1CCCc2ccc(S(=O)(=O)Nc3ccc4nncn4c3)cc21 [CBK306435] | 98.6%
71 | COCc1cc(C[C@H]2CNCC[C@H]2CC(=O)N2CCCCC2)no1 [CBK288899] | 109%
72 | CCC(C)(C)C(=O)Nc1ccc(Br)c2ccccc12 [CBK091342] | 79.7%
73 | CC1CCN(S(=O)(=O)c2ccc(C(=O)N3CCCCC3C(=O)O)cc2)CC1 (stereo not drawn) [CBK297094] | 89.8%
74 | Cc1ccc(NCc2nc3ccccc3n2Cc2ccccc2)cc1C [CBK263756] | 98.4%
75 | O=C(O)CN1C(=O)/C(=C\c2ccc(Oc3ccc(C(F)(F)F)cc3[N+](=O)[O-])cc2)SC1=S [CBK264809] | 97.9%
76 | CC(C(=O)N1CCCCC1)n1sc2ccccc2c1=O (stereo not drawn) [CBK116322] | 98.4%
77 | Cc1cccnc1C(c1ccc(F)cc1)N(C)C(=O)C1CCN(C(=O)OCc2ccccc2)CC1 (stereo not drawn) [CBK060095] | 116%
78 | CC(C)SCC(=O)Nc1ccc(Br)cc1 [CBK057618] | 102%
79 | CN(c1ccccc1)S(=O)(=O)c1cccc(NC(=O)c2ccc(=O)[nH]n2)c1 [CBK297091] | 96.3%
80 | Cc1cccc(OCC2CCCN(C(=O)c3cn(C)cn3)C2)c1 (stereo not drawn) [CBK307021] | 83.4%
81 | Cc1cccc2cc(C#N)c(NCCCn3ccnc3)nc12 [CBK109369] | 77.9%
82 | Oc1ccc(-n2cc(-c3ccccc3C(F)(F)F)nn2)cc1 [CBK112971] | 95.5%
83 | CC(Oc1ccc(Cl)cc1Cl)C(=O)N1CCN(Cc2ccc3c(c2)OCO3)CC1 (stereo not drawn) [CBK074438] | 95.2%
84 | O=C(CN1CC[C@H]2NC(=O)COc3ccccc3CCCC[C@@H]2C1)NCc1ccccn1 [CBK292046] | 96.7%
85 | O=C(O)c1ccc(NS(=O)(=O)c2cc(F)c(Br)cc2F)cc1 [CBK034045] | 101%
86 | COc1ccc(C(CNC(=O)C(=O)Nc2ccc(C(=O)O)cc2)N(C)C)cc1 (stereo not drawn) [CBK286724] | 119%

Same assay, conditions: human, hela cells, % viability, bulk resorufin, single well

Row | SMILES | viability at 28.5 h, 10 µM
87 | O=C(Nc1ccccc1)Nc1cnns1 [CBK028557] | 102%
